Results: patent US12365655B2, “Compounds” (CTXT PTY LTD, priority 2018, dated 2025)

Key:
QKF-KAT6B = target: T1, QKF-KAT6B (Homo sapiens, UniProt Q8WYB5); assay: Acetyltransferase biochemical assay (AlphaScreen), KAT6B; conditions: 8 nM KAT6B, 1 μM AcCoA, 100 nM histone H3.1
T1 construct: purchased SignalChem K315-381BG
Description: KAT6B was obtained from SignalChem, catalog ID: K315-381BG

[1] = system: acetylation of the histone H3K23 marker in U2OS cells; assay: Histone H3 Lysine 23 Acetylation Biomarker Assay; format: cell-based; conditions: Homo sapiens, 24 hours incubation, read-out: IC50, inhibition of histone H3K23 acetylation
Description: Compounds were tested for their ability to inhibit acetylation of the histone H3K23 marker in the following assay:
The cell line U2OS was seeded at a density of 9,000 cells per well in 96 well optical quality tissue culture plates in RPMI medium and 10% foetal bovine serum, and allowed to adhere for 24 hours under standard culture conditions (37 degree Celsius, 5% CO2). At the end of this period the medium was aspirated. […] After incubation for 24 hours, the cells were fixed with 3.7% formaldehyde in PBS for 20 minutes at room temperature, washed (5×5 minutes) with phosphate buffer saline containing 0.1% Tween 20 and blocked with Odyssey blocking buffer (LI-COR, Lincoln, Nebr.) containing 0.1% TritonX100. Anti-H3K23ac specific antibody (Abcam ab177275) in Odyssey blocking buffer containing 0.1% Tween 20 was added and incubated for 16 hours at 4 degree Celsius. After washing (as above), a secondary antibody labelled with Alexa647 dye (LifeTechnologies) and Hoechst 33342 (1 μg/mL, SigmaAldrich) were added for 1 hour incubation. Plates were washed as previously and read on a PerkinElmer Phenix high content imaging platform. Using a Columbus image analysis pipeline, individual nuclei were located by Hoechst 33342 stain and the acetylation level was calculated from the Alexa647-related intensity in the same area.

[2] = system: acetylation of the histone H3 Lysine 14 marker in U2OS cells; assay: Histone H3 Lysine 14 Acetylation Biomarker Assay; format: cell-based; conditions: Homo sapiens, serum free medium, 24 hours incubation, read-out: IC50, inhibition of histone H3 Lysine 14 acetylation
Description: Compounds were tested for their ability to inhibit acetylation of the histone H3 Lysine 14 marker in the following assay:
The cell line U2OS was seeded at a density of 3,000 cells per well in 384-well optical quality tissue culture plates in RPMI medium supplemented with 10% foetal bovine serum and 10 mM Hepes. The cells were allowed to adhere for 24 hours under standard culture conditions (37 degree Celsius, 5% CO2). At the end of this period the cells were washed with serum free medium. […] After incubation for 24 hours, the cells were fixed with 4% formaldehyde in PBS for 15 minutes at room temperature, washed with phosphate buffer saline and blocked with blocking buffer containing 0.2% TritonX100 and 2% BSA. Anti-H3K14ac specific antibody (Cell Signalling Technologies) in blocking buffer was added and incubated overnight at 4 degree Celsius. After washing, a secondary antibody labelled with AlexaFluor 488 dye (ThermoFisher) and Hoechst 33342 (1 μg/mL, Life Technologies) were added for 2 hours incubation at room temperature. Plates were washed and read on a PerkinElmer Opera HCS high content imaging platform. Using a Columbus image analysis pipeline, individual nuclei were located by Hoechst 33342 stain and the acetylation level was calculated from the AlexaFluor 488-related intensity in the same area.

[3] = system: histone H2A.Z Lysine 7 acetylation marker in U2OS cells; assay: H2A.Z Lysine 7 Acetylation Biomarker Assay; format: cell-based; conditions: Homo sapiens, serum free medium, 24 hours incubation, read-out: IC50, inhibition of histone H2A.Z Lysine 7 acetylation
Description: Compounds were tested for their ability to inhibit the histone H2A.Z Lysine 7 acetylation marker in the following assay:
The cell line U2OS was seeded at a density of 3,000 cells per well in 384-well optical quality tissue culture plates in RPMI medium supplemented with 10% foetal bovine serum and 10 mM Hepes. The cells were allowed to adhere for 24 hours under standard culture conditions (37 degree Celsius, 5% CO2). At the end of this period the cells were washed with serum free medium. […] 2018, at 30 μM concentration. After incubation for 24 hours, the cells were fixed with 4% formaldehyde in PBS for 15 minutes at room temperature, washed with phosphate buffer saline and blocked with blocking buffer containing 0.2% TritonX100 and 2% BSA. Anti-H2A.ZK7ac specific antibody (Abcam) in blocking buffer was added and incubated overnight at 4 degree Celsius. After washing, a secondary antibody labelled with AlexaFluor 488 dye (ThermoFisher) and Hoechst 33342 (1 μg/mL, Life Technologies) were added for 2 hours incubation at room temperature. Plates were washed and read on a PerkinElmer Opera HCS high content imaging platform. Using a Columbus image analysis pipeline, individual nuclei were located by Hoechst 33342 stain and the acetylation level was calculated from the AlexaFluor 488-related intensity in the same area.

MOF-KAT8 = target: T2, MOF-KAT8 (Homo sapiens, UniProt Q9H7Z6); assay: biochemical
T2 sequence (Q9H7Z6 with tags, fused parts or gaps): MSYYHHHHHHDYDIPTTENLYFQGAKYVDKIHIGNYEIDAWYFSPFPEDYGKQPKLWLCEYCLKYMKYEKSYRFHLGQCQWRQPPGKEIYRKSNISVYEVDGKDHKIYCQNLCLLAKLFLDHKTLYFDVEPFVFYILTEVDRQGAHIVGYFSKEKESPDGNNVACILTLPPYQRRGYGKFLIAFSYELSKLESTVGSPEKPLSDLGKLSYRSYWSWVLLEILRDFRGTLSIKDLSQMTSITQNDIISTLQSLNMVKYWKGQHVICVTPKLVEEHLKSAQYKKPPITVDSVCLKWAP

TIP60-KAT5 = TIP60-KAT5 (Homo sapiens, UniProt Q92993); assay: Acetyltransferase biochemical assay (AlphaScreen), KAT5
HBO-KAT7 = HBO-KAT7 (Homo sapiens, UniProt O95251); assay: Acetyltransferase biochemical assay (AlphaScreen), KAT7
MOZ-KAT6A = MOZ-KAT6A (Homo sapiens, UniProt Q92794, A567V); assay: Acetyltransferase biochemical assay (AlphaScreen), KAT6A
Sequence of MOZ-KAT6A (Q92794 with tags, fused parts or gaps A567V): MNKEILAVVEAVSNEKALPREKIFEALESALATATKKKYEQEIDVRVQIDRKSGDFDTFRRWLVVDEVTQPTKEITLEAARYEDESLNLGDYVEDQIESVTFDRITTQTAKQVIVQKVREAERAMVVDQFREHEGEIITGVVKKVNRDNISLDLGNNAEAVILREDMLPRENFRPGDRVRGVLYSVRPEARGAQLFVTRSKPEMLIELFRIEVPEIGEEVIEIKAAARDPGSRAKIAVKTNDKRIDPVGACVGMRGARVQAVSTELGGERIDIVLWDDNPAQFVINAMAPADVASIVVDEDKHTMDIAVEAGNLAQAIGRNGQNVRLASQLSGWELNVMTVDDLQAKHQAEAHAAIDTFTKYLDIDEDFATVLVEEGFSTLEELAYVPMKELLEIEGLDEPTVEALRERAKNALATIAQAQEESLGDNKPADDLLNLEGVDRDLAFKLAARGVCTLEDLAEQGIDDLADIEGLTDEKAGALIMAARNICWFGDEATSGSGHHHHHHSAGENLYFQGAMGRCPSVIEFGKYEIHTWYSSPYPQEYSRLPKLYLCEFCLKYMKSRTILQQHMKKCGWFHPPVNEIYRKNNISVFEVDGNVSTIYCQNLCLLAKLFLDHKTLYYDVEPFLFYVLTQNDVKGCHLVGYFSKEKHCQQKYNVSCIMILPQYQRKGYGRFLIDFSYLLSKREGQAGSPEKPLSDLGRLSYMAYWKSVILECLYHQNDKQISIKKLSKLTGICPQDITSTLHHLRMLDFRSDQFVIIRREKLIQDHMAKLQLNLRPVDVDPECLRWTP

Sequence of TIP60-KAT5 (Q92993 with tags, fused parts or gaps isoform Q92993-2): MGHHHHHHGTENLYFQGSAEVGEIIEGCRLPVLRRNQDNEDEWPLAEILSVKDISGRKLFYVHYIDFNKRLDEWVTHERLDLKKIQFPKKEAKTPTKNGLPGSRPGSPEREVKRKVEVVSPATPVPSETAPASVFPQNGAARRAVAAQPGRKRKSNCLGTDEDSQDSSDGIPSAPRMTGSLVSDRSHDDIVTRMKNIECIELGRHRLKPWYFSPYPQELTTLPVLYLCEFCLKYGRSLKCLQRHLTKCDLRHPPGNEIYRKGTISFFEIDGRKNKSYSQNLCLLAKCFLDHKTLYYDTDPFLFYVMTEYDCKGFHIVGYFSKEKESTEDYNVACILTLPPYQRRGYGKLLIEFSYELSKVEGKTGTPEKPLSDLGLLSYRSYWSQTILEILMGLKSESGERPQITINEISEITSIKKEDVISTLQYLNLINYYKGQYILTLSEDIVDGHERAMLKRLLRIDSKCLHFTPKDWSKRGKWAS
Sequence of HBO-KAT7 (O95251 with tags, fused parts or gaps): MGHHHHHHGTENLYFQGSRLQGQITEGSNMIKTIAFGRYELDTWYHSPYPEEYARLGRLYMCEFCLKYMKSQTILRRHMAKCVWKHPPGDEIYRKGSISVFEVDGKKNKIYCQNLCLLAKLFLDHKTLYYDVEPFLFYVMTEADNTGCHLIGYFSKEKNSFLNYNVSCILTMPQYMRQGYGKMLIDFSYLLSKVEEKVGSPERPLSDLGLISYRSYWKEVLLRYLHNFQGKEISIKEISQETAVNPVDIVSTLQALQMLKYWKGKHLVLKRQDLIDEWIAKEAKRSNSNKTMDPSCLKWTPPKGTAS
T1 sequence (Q8WYB5 whole entry): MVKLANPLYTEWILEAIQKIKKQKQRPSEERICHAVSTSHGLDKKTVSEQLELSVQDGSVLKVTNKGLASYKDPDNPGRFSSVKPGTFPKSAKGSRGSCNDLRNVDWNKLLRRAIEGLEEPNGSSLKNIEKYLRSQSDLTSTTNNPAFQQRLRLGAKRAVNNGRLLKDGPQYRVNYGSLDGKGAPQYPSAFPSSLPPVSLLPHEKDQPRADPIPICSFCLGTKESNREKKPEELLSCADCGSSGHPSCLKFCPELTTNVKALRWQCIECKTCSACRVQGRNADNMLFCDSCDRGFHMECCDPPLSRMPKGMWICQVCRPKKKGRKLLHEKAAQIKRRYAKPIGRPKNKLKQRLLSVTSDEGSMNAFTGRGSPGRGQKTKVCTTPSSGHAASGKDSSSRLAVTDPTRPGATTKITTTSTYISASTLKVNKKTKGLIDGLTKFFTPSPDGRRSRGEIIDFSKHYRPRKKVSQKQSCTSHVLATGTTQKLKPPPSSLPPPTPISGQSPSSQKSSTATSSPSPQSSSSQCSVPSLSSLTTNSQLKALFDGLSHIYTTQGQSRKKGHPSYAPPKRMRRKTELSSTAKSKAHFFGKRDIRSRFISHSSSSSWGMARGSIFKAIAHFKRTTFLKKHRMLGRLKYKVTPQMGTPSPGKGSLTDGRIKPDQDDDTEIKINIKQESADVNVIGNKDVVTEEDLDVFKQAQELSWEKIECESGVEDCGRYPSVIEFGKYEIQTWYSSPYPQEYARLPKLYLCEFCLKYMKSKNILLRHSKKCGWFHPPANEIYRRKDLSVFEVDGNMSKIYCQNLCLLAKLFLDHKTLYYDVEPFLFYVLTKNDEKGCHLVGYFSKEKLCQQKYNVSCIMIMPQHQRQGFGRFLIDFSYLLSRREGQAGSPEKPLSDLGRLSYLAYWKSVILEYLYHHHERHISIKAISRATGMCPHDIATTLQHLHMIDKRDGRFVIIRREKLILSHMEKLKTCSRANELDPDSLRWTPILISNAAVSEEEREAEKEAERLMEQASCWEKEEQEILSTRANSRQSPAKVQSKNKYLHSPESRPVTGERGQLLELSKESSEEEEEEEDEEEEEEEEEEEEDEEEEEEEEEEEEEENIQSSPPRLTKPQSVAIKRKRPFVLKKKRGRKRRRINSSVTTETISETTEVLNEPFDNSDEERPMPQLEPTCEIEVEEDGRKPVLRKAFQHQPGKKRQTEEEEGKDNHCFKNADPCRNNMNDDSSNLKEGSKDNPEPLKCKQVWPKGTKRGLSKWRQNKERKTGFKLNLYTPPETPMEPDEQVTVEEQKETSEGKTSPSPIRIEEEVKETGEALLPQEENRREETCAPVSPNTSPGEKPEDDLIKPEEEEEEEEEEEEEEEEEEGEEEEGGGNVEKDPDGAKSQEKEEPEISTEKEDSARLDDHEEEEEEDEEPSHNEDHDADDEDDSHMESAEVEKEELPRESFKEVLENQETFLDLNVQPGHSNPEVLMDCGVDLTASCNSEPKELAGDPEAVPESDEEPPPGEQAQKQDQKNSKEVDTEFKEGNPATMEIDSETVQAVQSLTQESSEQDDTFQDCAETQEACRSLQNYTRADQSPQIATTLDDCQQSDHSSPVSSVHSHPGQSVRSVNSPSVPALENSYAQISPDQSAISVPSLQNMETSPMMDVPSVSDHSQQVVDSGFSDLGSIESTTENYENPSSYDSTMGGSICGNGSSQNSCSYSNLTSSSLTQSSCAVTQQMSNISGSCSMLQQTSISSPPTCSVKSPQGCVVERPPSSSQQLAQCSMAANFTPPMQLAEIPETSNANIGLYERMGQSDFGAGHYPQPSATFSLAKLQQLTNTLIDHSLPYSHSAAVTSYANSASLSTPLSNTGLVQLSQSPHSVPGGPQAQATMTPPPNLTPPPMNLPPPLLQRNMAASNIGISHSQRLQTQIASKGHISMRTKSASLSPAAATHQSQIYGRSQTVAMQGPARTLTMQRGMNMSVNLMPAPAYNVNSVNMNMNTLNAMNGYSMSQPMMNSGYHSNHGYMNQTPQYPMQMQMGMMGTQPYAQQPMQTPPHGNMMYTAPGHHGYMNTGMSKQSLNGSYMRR

SMILES | IC50 (QKF-KAT6B) | IC50 [1] | IC50 [2] | IC50 [3] | IC50 (MOF-KAT8) | IC50 (TIP60-KAT5) | IC50 (HBO-KAT7) | IC50 (MOZ-KAT6A)
COCc1cc(OC)c2c(NS(=O)(=O)c3ccc(OC)c4cccnc34)noc2c1 [Example 162, 5-methoxy-N-(4-methoxy-6-(methoxymethyl)benzo[d]isoxazol-3-yl)quinoline-8-sulfonamide] | 180 nM | 144 nM | 1530 nM | 29500 nM | 10600 nM | 14000 nM | 969 nM | 147 nM
COCc1cc2onc(NS(=O)(=O)c3ccc(OC)cc3OC)c2cc1C [Example 166, 2,4-dimethoxy-N-(6-(methoxymethyl)-5-methylbenzo[d]isoxazol-3-yl)benzenesulfonamide] | 227 nM | 398 nM | 3690 nM | 33300 nM | 2920 nM | 3090 nM | 328 nM | 123 nM
COc1cc(-c2ccccc2)cc(OC)c1S(=O)(=O)Nc1noc2cccc(OC)c12 [Example 95, 3,5-Dimethoxy-N-(4-methoxybenzo[d]isoxazol-3-yl)-[1,1-biphenyl]-4-sulfonamide] | 1640 nM | > 10000 nM | 9090 nM | > 40000 nM | 6450 nM | 14000 nM | 754 nM | 430 nM
CCc1ccc(OC)c(S(=O)(=O)Nc2noc3c(-c4ccccc4)cccc23)c1 [Example 178, 5-Ethyl-2-methoxy-N-(7-phenylbenzo[d]isoxazol-3-yl)benzenesulfonamide] | 2460 nM | > 10000 nM | 3070 nM | 5590 nM | 770 nM | 7540 nM | 482 nM | 1440 nM
COCc1cc(OC)c2c(NS(=O)(=O)c3c(OC)cccc3OC)noc2c1 [Example 173, 2,6-Dimethoxy-N-(4-methoxy-6-(methoxymethyl)benzo[d]isoxazol-3-yl)benzenesulfonamide] | 40 nM | 20 nM | 533 nM | 26200 nM | 3520 nM | 4050 nM | 169 nM | 15 nM
